What all share (experiment): MIC, serial dilution method (CLSI)
One experiment relates to Escherichia coli E2. In kind it is cell-based. The following applies: E. coli E2, ESBL; duplicates a/b. The protocol: The MIC for each compound for each bacteria strain was determined by the serial dilution method following the CLSI guidelines (CLSI Clinical and Laboratory Standards Institute: Performance Standards for Antimicrobial Susceptibility Testing: […] M100-S25. Wayne, Pa., USA; 2015.) All compounds were diluted in autoclaved H2O and stored at 4° C. […] Bacterial inoculums were prepared by inoculating 9 ml of H2O with bacterial colonies from agar plate (Oxoid, Roskilde Denmark) supplemented with bovine blood to a final yield a final density of 10^8 colony forming unit (CFU)/mL using a Sensititre™ Nephelometer (Thermo Scientific, Roskilde, Denmark). These inoculums were each in diluted 1:100 in Müller Hinton (MH) broth (Sigma, Copenhagen, Denmark). From the diluted inoculums 100 μl was transferred to each well in a 96-well plate and mixed with the compound to be MIC determined. The plate was incubated for 24 hours at 37° C. (without shaking). The MIC value was determined as the lowest concentration in which no bacterial growth could be visually detected. All MIC determinations were done in duplicates. […] Since all derivatives are new, no control strains (with reference MIC values) were available.

The next experiment concerns E. faecium. In kind it is cell-based, Enterococcus faecium. The following applies: Enterococcus faecium, 24 h; read-out: MIC. An outline of the steps: (§1)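 Broth microdilution: inocula diluted 1:100 in Müller Hinton broth are mixed with the compound, then incubated unshaken for 24 hours at 37° C. Wells are inspected visually, and the lowest growth-free concentration is taken as MIC, in duplicate.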

The test system of a further experiment is E. faecalis. In kind it is cell-based, Enterococcus faecalis. Conditions: Enterococcus faecalis, 24 h; read-out: MIC. Summed up:
as §1

In another experiment the test system is Escherichia coli E24. In kind it is cell-based. Conditions: E. coli E24, ESBL; duplicates a/b. Summed up: as §1
Another experiment relates to Escherichia coli ESBL46. In kind it is cell-based. The following applies: E. coli ESBL46, Tetracycline resistant; duplicates a/b. An outline of the steps: as §1
In the next experiment the test system is Escherichia coli E6. In kind it is cell-based. The following applies: E. coli E6, ESBL; duplicates a/b. Summed up:
as §1

A further experiment relates to Escherichia coli E5. In kind it is cell-based. The following applies: E. coli E5, ESBL; duplicates a/b. An outline of the steps:
as §1

Another experiment relates to Escherichia coli ESBL37. In kind it is cell-based. The following applies: E. coli ESBL37, Tetracycline resistant; duplicates a/b. An outline of the steps:
as §1

For another experiment, the system named is Escherichia coli E38. In kind it is cell-based. Conditions: E. coli E38, ESBL; duplicates a/b. Summed up: as §1
For a further experiment, the system named is Escherichia coli ESBL19. In kind it is cell-based. The following applies: E. coli ESBL19, Tetracycline resistant; duplicates a/b. An outline of the steps:
as §1

The subject of the next experiment is Salmonella enteritidis. In kind it is cell-based. The following applies: Salmonella enterica, ENTERITIDIS, 24 h; read-out: MIC. An outline of the steps: as §1
A further experiment concerns Escherichia coli ESBL28. In kind it is cell-based. Conditions: E. coli ESBL28, Tetracycline resistant; duplicates a/b. An outline of the steps: as §1
Another experiment concerns Escherichia coli ESBL10. In kind it is cell-based. Conditions: E. coli ESBL10, Tetracycline resistant; duplicates a/b. Summed up: as §1
In a further experiment the test system is Escherichia coli E4. In kind it is cell-based. Conditions: E. coli E4, ESBL; duplicates a/b. An outline of the steps: as §1
A further experiment has as its system Bacillus cereus. In kind it is cell-based. The following applies: 24 h, read-out: MIC. An outline of the steps:
as §1

The next experiment has as its system Listeria monocytogenes. In kind it is cell-based. Conditions: 24 h, read-out: MIC. Summed up: as §1
For the next experiment, the system named is Escherichia coli ESBL1. In kind it is cell-based. The following applies: E. coli ESBL1, Tetracycline resistant; duplicates a/b. Summed up:
as §1

Another experiment has as its system Streptococcus equi. In kind it is cell-based. Conditions: 24 h, read-out: MIC. Summed up:
as §1

The test system of a further experiment is S. aureus CC398. In kind it is cell-based, Staphylococcus aureus. The following applies: Staphylococcus aureus, MRSA, 24 h; read-out: MIC. An outline of the steps: as §1
A further experiment relates to S. aureus USA300. In kind it is cell-based, Staphylococcus aureus. The following applies: Staphylococcus aureus, USA300, 24 h; read-out: MIC. An outline of the steps: as §1
Another experiment relates to E. coli APEC O2. In kind it is cell-based, Escherichia coli. The following applies: Escherichia coli, APECO2, 24 h; read-out: MIC. An outline of the steps:
as §1

In experiment [1] the test system is Staphylococus pseudintermedius. In kind it is cell-based, Staphylococcus pseudintermedius. Conditions: Staphylococcus pseudintermedius, 24 h; read-out: MIC. An outline of the steps:
as §1

For the molecule `CCCCCCCCCCCC[N+](C)(C)CCCN1c2ccccc2Sc2ccc(Cl)cc21.[Br-]` [Compound S7, N-(3-(2-chloro-10H-phenothiazin-10-yl)propyl)-N,N-dimethyldodecan-1-aminium bromide], the MIC in the experiment with Escherichia coli E2 was 8/4; in the experiment on E. faecium, 0.25 µg/mL; in the experiment on E. faecalis, 0.5 µg/mL; in the experiment on Escherichia coli E24 it was 4/4; with Escherichia coli ESBL46, 4/8; against Escherichia coli E6, 4/4. Also, the MIC with Escherichia coli E5 is 4/4; against Escherichia coli ESBL37, 4/4; against Escherichia coli E38, 4/4; in the experiment with Escherichia coli ESBL19, 4/4; with Salmonella enteritidis it was 16 µg/mL; with Escherichia coli ESBL28, 4/4. Besides, the MIC was 8/8 in the experiment with Escherichia coli ESBL10; 4/4 in the experiment with Escherichia coli E4; 0.25 µg/mL with Bacillus cereus; 0.25 µg/mL with Listeria monocytogenes; 4/4 against Escherichia coli ESBL1; 1 µg/mL with Streptococcus equi. The MIC in the experiment with S. aureus CC398 amounted to 0.25 µg/mL; with S. aureus USA300, 0.5 µg/mL; in the experiment on E. coli APEC O2, 4 µg/mL; in experiment [1], 0.25 µg/mL.

The record behind these values is US20220313656A1, “NEW CLASS OF ANTIBIOTICS HAVING LOW MIC-VALUES TOWARDS DIFFERENT STRAINS OF BACTERIA” (priority 2019, published 2022).
